# Source: patent publication US11897917B2, “Bioconjugation of polypeptides” (The University of York, priority 2017, dated 2024)
# Read-outs that look alike come from different tables or passages of the source.
# Columns and labels:
# GFP(Y39ThzK) 2B = GFP(Y39ThzK) 2B (Aequorea victoria, UniProt P42212, F64L/H231L/S65T/V163A/Y39K); settings: for effect on GFP (denaturation / unfolding): initial screen, 100 equivalents
# Experimental: Palladium reagent 9 to 12 (stock 550 mM in DMSO, final concentration 33 mM) was added to 2b (stock 330 μM in buffer D1, final concentration 300 μM) in a 0.5 mL Eppendorf tube. The reaction mixture was vortex mixed for 1 s and incubated in a water bath at 37° C. The reaction was quenched by the addition of DTT (ca. 5 mg) and centrifuged (5000×g, 2 min). The supernatant was decanted and desalted using a PD SpinTrap G25 column (GE Healthcare Life Sciences) into H2O for mass spectrometry analysis or further manipulation.
# Initially a reaction was set up using 25 μM of 2B (final concentration), 100 μM palladium catalyst (final concentration) in PBS pH 7.4. The reaction mix was then incubated at 37° C. for 1 hour before addition of 1 μl of 1% 3-mercaptopropanoic acid solution for every 10 μl of reaction solution in order to quench excess catalyst. Quenched solution was then incubated at room temperature for 15 minutes and then desalted using a PD SpinTrap G25 column (GE Healthcare Life Sciences) into H2O for mass spectrometry analysis or further manipulation. Efficiency of decaging was determined by ESI-MS.
# This reaction process was repeated using protein concentrations of 2B up to 300 μM and catalyst concentrations.
# 9-12 were trialled at 37° C. at pH 7.4 in order to maintain biocompatibility over a range of concentrations and time intervals (Table 1).
# glyoxyl-LYRAG 16A = experiment: screening of organocatalysts and aldehyde donors for OPAL reaction
# Experimental: Initially a panel of secondary amines was screened to investigate their ability to catalyse the ligation using a model peptide substrate, glyoxyl-LYRAG 16A and acetaldehyde as an aldehyde donor 32. Second order rate constants for each catalyst (33-38) at 1, 10, and 25 mM loadings were obtained. Next the nature of the α-carbon substituent of the aldehyde donor was investigated by performing reactions using aldehyde donors bearing an aryl substituent (e.g. phenyl acetylaldehyde). Reactions were as shown in Scheme 7 below.
# Encouraged by the biological compatibility and site selectivity in these preliminary ligations, attention next turned to optimizing the OPAL by focusing on the choice of organocatalyst and aldehyde donor species. Initially a panel of secondary amines (33-38) were screened to investigate their ability to catalyse the ligation using a model peptide substrate α-oxo-aldehyde-LYRAG 16A and acetaldehyde 32, and second order rate constants were obtained for each catalyst at 1, 10, and 25 mM loadings (Table 4).
# [1] = tested on: α-phenyl-β-hydroxy aldehyde-LYRAG 50; experiment: screening of aniline catalysts for oxime ligation of aldol-LYRAG; settings: 100 mM catalyst, 37° C., 18 hours
# Experimental: […] The solution as then charged with an aniline catalyst 56-59 (1M, 50 μl, DMSO). The reaction was vortexed, and allowed to sit at 37° C. for 18 hours without further agitation. Conversion to the product 52 was confirmed by LC-MS analysis.
# [2] = tested on: α-phenyl-β-hydroxy aldehyde-LYRAG 50; experiment: screening of aniline catalysts and buffer for retro-aldol decomposition of aldol-LYRAG
# Experimental: The solution was then charged with an aniline catalyst (1M in 50 μl DMSO) selected from compounds 56, 57, 58 and 59 as shown in Scheme 10 below. The reaction was vortexed, and allowed to sit at 37° C. for 18 hours without further agitation. Conversion to the product 16A/16B was confirmed by LC-MS analysis.
# […] The solution was then charged with p-anisidine catalyst 57 (1M, 50 μl, DMSO). The reaction was vortexed, and allowed to sit at 37° C. for 18 hours without further agitation (Scheme 11). Conversion to the product 16A/16B was confirmed by LC-MS analysis.
# [3] = organocatalyst loading 1 mM, Donor R group = CH3
# [4] = organocatalyst loading 10 mM, Donor R group = CH3
# [5] = organocatalyst loading 25 mM, Donor R group = CH3
# [6] = pH 7.5, 50 to 16A, PB 200 mM, 37° C., 18 hours
# [7] = organocatalyst loading 1 mM, Donor R group = Phenyl-alanine
# [8] = organocatalyst loading 10 mM, Donor R group = Phenyl-alanine
# [9] = organocatalyst loading 25 mM, Donor R group = Phenyl-alanine
# [10] = 100 equiv. [Pd], 6 h, 37° C., pH 7.4
molecule,measurement,setting,value
"O=C(/C=C/c1ccccc1)/C=C/c1ccccc1.O=C(/C=C/c1ccccc1)/C=C/c1ccccc1.O=C(/C=C/c1ccccc1)/C=C/c1ccccc1.[Pd].[Pd] [compound 12, Tris(dibenzylideneacetone)dipalladium(0)]",GFP fluorescence,"GFP(Y39ThzK) 2B; 1 equiv. [Pd], 1 h",Yes
same,GFP fluorescence,"GFP(Y39ThzK) 2B; 100 equiv. [Pd], 6 h",Yes
same,% conversion (decaging),"GFP(Y39ThzK) 2B; 100 equiv. [Pd], 24 h",80%
same,GFP fluorescence,"GFP(Y39ThzK) 2B; 100 equiv. [Pd], 24 h",Yes
same,% conversion (decaging),"GFP(Y39ThzK) 2B; 100 equiv. [Pd], 40 h",100%
same,GFP fluorescence,"GFP(Y39ThzK) 2B; 100 equiv. [Pd], 40 h",Yes
same,% conversion (decaging),"GFP(Y39ThzK) 2B; 100 equiv. [Pd], 68 h",90%
same,GFP fluorescence,"GFP(Y39ThzK) 2B; 100 equiv. [Pd], 68 h",Yes
same,% conversion (decaging),"GFP(Y39ThzK) 2B; 200 equiv. [Pd], 6 h",40%
same,GFP fluorescence,"GFP(Y39ThzK) 2B; 200 equiv. [Pd], 6 h",Yes
same,Conversion of 2B to 13A/B,"GFP(Y39ThzK) 2B; ESI-MS, after 24 h",> 95%
same,time to completion of decaging,GFP(Y39ThzK) 2B; after condition optimisation,≤ 24 h
same,time to complete decaging,GFP(Y39ThzK) 2B; initial conditions,48 h
same,effect on GFP (denaturation / unfolding),"GFP(Y39ThzK) 2B; 37° C., pH 7.4",did not lead to GFP unfolding
Pyrrolidine [compound 34],Second Order Rate Constant,glyoxyl-LYRAG 16A; [3],0.0005 M⁻¹ s⁻¹
same,Second Order Rate Constant,glyoxyl-LYRAG 16A; [4],0.0037 M⁻¹ s⁻¹
same,Second Order Rate Constant,glyoxyl-LYRAG 16A; [5],0.0058 M⁻¹ s⁻¹
"Nc1cc([N+](=O)[O-])ccc1O [compound 59, 2-Amino-4-nitrophenol]",Conjugation Yield (oxime),[1]; pH 4.5,precipitates
same,Conjugation Yield (oxime),[1]; pH 7.5,97%
same,Retro-aldol conversion,[2]; [6],0%
"Nc1ccccc1 [compound 56, aniline]",Conjugation Yield (oxime),[1]; pH 4.5,61%
same,Conjugation Yield (oxime),[1]; pH 7.5,95%
same,Retro-aldol conversion,[2]; [6],25%
"C1CN[C@H](c2nnn[nH]2)C1 [compound 38, (S)-(−)-5-(2-Pyrrolidinyl)-1H-tetrazole]",Second Order Rate Constant,glyoxyl-LYRAG 16A; [3],0.0092 M⁻¹ s⁻¹
same,Second Order Rate Constant,glyoxyl-LYRAG 16A; [7],3.792 M⁻¹ s⁻¹
same,Second Order Rate Constant,glyoxyl-LYRAG 16A; [4],0.0551 M⁻¹ s⁻¹
same,Second Order Rate Constant,glyoxyl-LYRAG 16A; [8],11.820 M⁻¹ s⁻¹
same,Second Order Rate Constant,glyoxyl-LYRAG 16A; [5],0.0997 M⁻¹ s⁻¹
same,Second Order Rate Constant,glyoxyl-LYRAG 16A; [9],23.947 M⁻¹ s⁻¹
"O=C(O)[C@@H]1CCN1 [compound 36, L-Azetidine 2 carboxylic acid]",Second Order Rate Constant,glyoxyl-LYRAG 16A; [3],0.0004 M⁻¹ s⁻¹
same,Second Order Rate Constant,glyoxyl-LYRAG 16A; [4],0.0024 M⁻¹ s⁻¹
same,Second Order Rate Constant,glyoxyl-LYRAG 16A; [5],0.0052 M⁻¹ s⁻¹
"C=C[CH2-].C=C[CH2-].[Cl][Pd+].[Cl][Pd+] [compound 11, Allylpalladium(II) chloride dimer]",concentration at which reagent denatures GFP,GFP(Y39ThzK) 2B,greater than 0.5 mM
same,GFP fluorescence,"GFP(Y39ThzK) 2B; 1 equiv. [Pd], 1 h",Yes
same,GFP fluorescence,"GFP(Y39ThzK) 2B; 100 equiv. [Pd], 6 h",No
same,% conversion (decaging),GFP(Y39ThzK) 2B; [10],30%
same,GFP fluorescence,"GFP(Y39ThzK) 2B; 100 equiv. [Pd], 24 h",No
same,effect on GFP (denaturation / unfolding),"GFP(Y39ThzK) 2B; 37° C., pH 7.4",immediate denaturation and eventual precipitation
"COc1ccc(N)c(C(=O)O)c1 [compound 58, 5-methoxy anthranilic acid]",Conjugation Yield (oxime),[1]; pH 4.5,34%
same,Conjugation Yield (oxime),[1]; pH 7.5,97%
same,Retro-aldol conversion,[2]; [6],8%
O=CCc1ccccc1 [phenyl acetylaldehyde],increase in rate over aldehyde donors bearing alkyl substituents,glyoxyl-LYRAG 16A; with L-proline 33 and tetrazole 38,≥ 240 fold
"C1CNCCOC1 [compound 37, Homomorpholine]",Second Order Rate Constant,glyoxyl-LYRAG 16A; [3],0.0022 M⁻¹ s⁻¹
same,Second Order Rate Constant,glyoxyl-LYRAG 16A; [4],0.0166 M⁻¹ s⁻¹
same,Second Order Rate Constant,glyoxyl-LYRAG 16A; [5],0.0252 M⁻¹ s⁻¹
"O=C(O)[C@@H]1CCCN1 [compound 33, L-proline]",Second Order Rate Constant,glyoxyl-LYRAG 16A; [3],0.00009 M⁻¹ s⁻¹
same,Second Order Rate Constant,glyoxyl-LYRAG 16A; [7],1.684 M⁻¹ s⁻¹
same,Second Order Rate Constant,glyoxyl-LYRAG 16A; [4],0.0033 M⁻¹ s⁻¹
same,Second Order Rate Constant,glyoxyl-LYRAG 16A; [8],4.366 M⁻¹ s⁻¹
same,Second Order Rate Constant,glyoxyl-LYRAG 16A; [5],0.0100 M⁻¹ s⁻¹
same,Second Order Rate Constant,glyoxyl-LYRAG 16A; [9],7.899 M⁻¹ s⁻¹
"C1CCNCC1 [compound 35, Piperidine]",Second Order Rate Constant,glyoxyl-LYRAG 16A; [3],>0.0001 M⁻¹ s⁻¹
same,Second Order Rate Constant,glyoxyl-LYRAG 16A; [4],0.0009 M⁻¹ s⁻¹
same,Second Order Rate Constant,glyoxyl-LYRAG 16A; [5],0.0016 M⁻¹ s⁻¹
"CN(C)c1ccc(P(C(C)(C)C)C(C)(C)C)cc1.CN(C)c1ccc(P(C(C)(C)C)C(C)(C)C)cc1.[Cl-].[Cl-].[Pd+2] [compound 10, dichlorobis[di-tert-butyl(4-dimethylaminophenyl)phosphine]palladium(II)]",GFP fluorescence,"GFP(Y39ThzK) 2B; 100 equiv. [Pd], 6 h",No
same,% conversion (decaging),GFP(Y39ThzK) 2B; [10],0%
same,% conversion (decaging),"GFP(Y39ThzK) 2B; 100 equiv. [Pd], 24 h",0%
same,GFP fluorescence,"GFP(Y39ThzK) 2B; 100 equiv. [Pd], 24 h",No
"COc1ccc(N)cc1 [compound 57, p-anisidine]",Conjugation Yield (oxime),[1]; pH 4.5,81%
same,Conjugation Yield (oxime),[1]; pH 7.5,92%
same,Retro-aldol conversion,"[2]; PB, pH 7.5, conc. 10 (Mm)",0%
same,Retro-aldol conversion,"[2]; PB, pH 7.5, conc. 50 (Mm)",13%
same,Retro-aldol conversion,"[2]; PB, pH 7.5, conc. 100 (Mm)",50%
same,Retro-aldol conversion,[2]; [6],52%
"CC(=O)[O-].CC(=O)[O-].[Pd+2] [compound 9, Palladium(II) acetate]",GFP fluorescence,"GFP(Y39ThzK) 2B; 100 equiv. [Pd], 6 h",Yes
same,GFP fluorescence,"GFP(Y39ThzK) 2B; 100 equiv. [Pd], 24 h",Yes
same,effect on GFP (denaturation / unfolding),"GFP(Y39ThzK) 2B; 37° C., pH 7.4",immediate denaturation and eventual precipitation
